Assay results taken from publication PMC11215077, “Antiviral activity of temporin-1CEb analogues against gingival infection with herpes simplex virus type 1” (Frontiers in Oral Health, 2024).
≈ marks a conversion by molar mass, not a printed value. Where two headings read alike, the source gives them in different places. Square brackets hold non-standard residues; d marks the D form. Peptide text beside a SMILES is read from it. AEEA = NCCOCCOCC(=O)O

What was measured:
HSV-1 [1] = test: Virus inhibition (replication) assay in Vero E6 and TIGKs cells, qPCR, titration, gB Western blot; format: cell-based, herpes simplex virus type 1; conditions: 48 h p.i.
Method: HSV-1 stocks were generated by infecting Vero E6 cells. Cells were lysed at 48 h p.i. by two freeze-thaw cycles. The virus containing fluid was aliquoted and stored at −80°C. A control Vero E6 cell lysate from mock-infected cells was prepared in the same manner as the virus stock. Virus yield was assessed by virus titration on fully confluent Vero E6 cells in 96-well plates, according to the method of Reed & Muench ([32]). Plates were incubated at 37°C for 48 h and the occurrence of a cytopathic effect was scored using an inverted microscope, and TCID50 (50% tissue culture infection dose) was calculated.
Vero E6 or TIGKs cells were seeded in 12-well plates and cultured for 48 h. […] After 30 min of incubation at 37°C, cells were infected with HSV-1 at TCID50 400 /ml or treated with mock. After 2 h of infection at 37°C, unbound viral particles were removed by washing with PBS, and culture media supplemented with peptide conjugates were applied. Following 48 h of incubation, media were collected, and the quantity of HSV-1 DNA copies was assessed using titration and qPCR.
(§1) Viral DNA was isolated from the conditioned media or the apical washes of inserts (OTG model) using Viral DNA/RNA Isolation Kit (A&A Biotechnology). The virus yield assessed by quantitative real-time PCR (qPCR). The reaction was carried out in a CFX96 Touch Real-Time PCR Detection System (Bio-Rad), in a 10 μl reaction mixture consisting of TaqMan^TM Fast Advanced Master Mix, TaqMan^TM Microbe Detection assay against HSV-1 (Vi04230116_s1) and 1 μl of viral DNA. The temperature profile was 10 s at 95°C, followed by 40 cycles of 3 s at 95°C and 20 s at 60°C. DNA quantification standards were prepared. In summary, a fragment of viral DNA was amplified using the primers listed above and cloned into the pTZ57R/T plasmid using the InsTAclone PCR cloning kit. The plasmid was propagated in E. coli, purified with the GeneJet Plasmid Miniprep Kit, and digested with the EcoR1 restriction enzyme. The number of copies per mL was estimated after the concentration of linearized DNA was assessed spectrophotometrically.
Protein extracts were prepared using lysis buffer (0.25% Na-deoxycholate, 0.5% Nonidet P-40, 0.05% SDS, protease inhibitor mixture, 2.5 mM EDTA in PBS), and the protein concentration was assessed using Pierce BCA (Thermo Fisher) protein assay kit. Equal amounts of cell extracts were separated on 10% SDS-PAGE gel and electrotransferred onto polyvinylidene difluoride membranes for gB and β-actin in transfer buffer (25 mM Tris, 0.2 M glycine, and 20% ethanol) for 90 min at 100 V. Nonspecific binding sites were blocked for 90 min in 5% skimmed milk prepared in TBST buffer (20 mM Tris, pH 7.5, 0.5 M NaCl, 0.05% Tween 20). Membranes were further incubated overnight at 4°C with primary antibodies: mouse anti-HSV-1 + HSV-2 gB (1:5000; abcam) and mouse anti-β-actin (1:4,000; BD Biosciences). The following day, membranes were washed three times with TBST buffer and incubated with HRP-conjugated secondary antibodies for 60 min at 37°C: goat anti-mouse IgG (1:20,000; β-actin; BD Bioscience) or sheep anti-mouse IgG (1:50,000; gB; Sigma Aldrich). Next, blots were washed five times for 5 min in TBST buffer, developed using Luminata Cresecendo Substarte (Merck) and exposed to AGFA medical x-ray film. Densitometry analysis was performed using ImageJ 1.52q software.

[2] = Analytical RP-HPLC retention time; conditions: Phenomenex Jupiter 4 μ Proteo 90 Å, 250 × 4.60 mm, listed as basic physicochemical characteristic
Method: The synthesized compounds were then purified by reverse-phase high-performance liquid chromatography (RP-HPLC) on a Waters system (Phenomenex Jupiter 4 μ Proteo 90 Å column, 250 × 10 mm). A linear gradient from 10% to 80% of solvent B over 60 min (Solvent A: 0.1% TFA in water; Solvent B: 80% acetonitrile in Solvent A) was employed with a flow rate 5 ml/min. The homogeneity of the final peptide fractions was analyzed using a Shimadzu HPLC System (Shimadzu Europe GmbH, Duisburg, Germany) equipped with a Phenomenex Jupiter 4 μ Proteo 90 Å column, 250 × 4.60 mm. The mass spectra of the synthesized peptides were recorded using a Biflex III MALDI-TOF mass spectrometry (Bruker, Mannheim, Germany) with α-cyano-4-hydroxy-cinnamic acid (CCA) or 2,5-dihydroxybenzoic acid (DHB) used as the matrix.

HSV-1 [3] = test system: HSV-1; set-up: method as in PMID 29483113; conditions: different model of epithelial cells; cited from earlier work
Source text: In our studies, we initially utilized the Vero E6 cell line, which has been a long-standing choice in herpesviruses research ([40], [41]).

HSV-1 [4] = conditions: concentration reducing viral replication by 50%; TIGKs cells pre-treated, infected and cultivated with compound; qPCR; mean of two independent experiments
Method: Data were expressed as means ± SD. Statistical significance was determined using unpaired t-test, one-way ANOVA, and/or two-way ANOVA for direct comparisons between single groups. A p-value <0.05 was considered statistically significant. We used GrapPad Prism 10 software for the analyses. […]

HSV-1 [5] = test: Antiviral activity in 3D organotypic model of human gingiva (OTG); format: cell-based, herpes simplex virus type 1; conditions: 15 μg/ml; H&E stained sections; Figure 5A
Method: Protocol was described previously ([34]). Briefly, to prepare 3D cultures, 150,000 gingival fibroblasts suspended in 10% FBS in DMEM were mixed with 2.4 ml of ice-cold Matrigel® (Corning) (final concentration 7 mg/ml) and placed in the middle of 12-well cell culture inserts (Greiner). Three days later, 1 × 10^6 TIGK cells suspended in EPM1 were added to the top of the insert. On the ninth day after the start of the procedure, the old culture medium was removed and EPM2 was added to the bottom of the insert. The epithelial layer on the top was exposed to the air, which promotes epithelial differentiation and then stratification. About 8–10 days after air-liquid interphase, 3D cultures of gingiva were used for further experiments.
The apical surface of OTG model was washed three times with PBS and then inoculated with 100 μl of viral stock (TCID50 400 /ml) in the presence of DAL-PEG-LK6 or CPP1-PEG-LK6 (15 μg/ml) for 2 h at 4°C. Following incubation, the unbound HSV-1 was removed by washing with PBS for 10 min at 37°C, and the OTG cultures were maintained at an air-liquid interface for the rest of the experiment. To determine viral yield, 120 μl of PBS was applied to the apical surface of the OTG, and harvested for DNA isolation after 10 min of incubation at 37°C.
Briefly, cell inserts were fixed in 10% formaldehyde at 4°C for 1 h. After embedding in paraffin, 3D cultures were cut into 5 μm sections and stained with H&E solution. For immunohistochemical analysis, slides were incubated for 1 h at room temperature in blocking buffer (5% normal goat serum, 0.1% saponin in PBS) and stained with primary antibodies anti-HSV-1 (1:100, 1% normal goat serum, 0.1% saponin in PBS; Abcam) and secondary antibodies: goat anti-rabbit conjugated with Alexa Fluor 488 (1:2000; Cell Signaling). Finally, cell nuclei were stained with ProLong Antifade Mounting Medium with DAPI. Slides were visualized with EVOS FL Cell Imaging System (Thermo Fisher Scientific).
as §1

Method for in vitro: The viability of Vero E6 and TIGKs cells was examined by the XTT Cell Viability Assay kit (Biological Industries, USA). Briefly, cells were treated with indicated concentrations of the peptide conjugates for 48 h at 37°C. Next, the fresh medium was added to the cells and 50 μl of the activated XTT reagent [2,3-bis(2-methoxy-4-nitro-5-sulphenyl)-2H-tetrazolium-5-carboxanilide] was added and further incubated for 2 h at 37°C. Absorbance was measured at a wavelength of 480 nm using FlexStation 3 microplate reader (Molecular Device, Wokingham, UK). The results were expressed normalized against a control of untreated cells (100% viability). To assess the effect of peptide conjugate on the integrity of the plasma membrane, the LDH release assay was performed using the CytoTox96 nonradioactive cytotoxicity assay kit (Promega, Madison, WI, USA) according to the manufacturer's instructions. Cytotoxicity was calculated with the formula: % cytotoxicity = 100 × (experimental LDH release/ maximum LDH release), where maximum LDH release is after lysis solution addition (Triton X-100). Relative amounts of LDH release were measured (absorbance at 490 nm) using FlexStation 3 microplate reader (Molecular Device, Wokingham, UK). […]
Data were expressed as means ± SD. Statistical significance was determined using unpaired t-test, one-way ANOVA, and/or two-way ANOVA for direct comparisons between single groups. […]

RKKRRQRRR-O2Oc-IKKILSKIKKLLK-NH2 [CPP2-PEG-LK6, conjugate of cationic cell-penetrating peptide (HIV-1 TAT49–57 fragment) with LK6 via PEG linker]
reduction in viral yield in the qPCR test (HSV-1 [1]; Figure 1C, Vero E6 (DAL-PEG-LK6 and CPP1-PEG-LK6 25 μg/ml; CPP2-PEG-LK6 10 μg/ml) and TIGKs cells (15 μg/ml)): 1 log | reduction of virus replication in titration assay (HSV-1 [1]; Figure 1D, both cell models (Vero E6, TIGKs), normalized to untreated control): 97% | Rt [2]: 20.094

temporin B
IC50 (HSV-1 [3]): 93 mg/L

CC[C@H](C)[C@H](NC(=O)COCCOCCNC(=O)[C@H](CCCNC(=N)N)NC(=O)[C@H](CC(C)C)NC(=O)[C@H](Cc1ccccc1)NC(=O)CNC(=O)[C@@H](C)NC(=O)[C@@H](N)Cc1ccc(O)cc1)C(=O)N[C@@H](CCCCN)C(=O)N[C@@H](CCCCN)C(=O)N[C@H](C(=O)N[C@@H](CC(C)C)C(=O)N[C@@H](CO)C(=O)N[C@@H](CCCCN)C(=O)N[C@H](C(=O)N[C@@H](CCCCN)C(=O)N[C@@H](CCCCN)C(=O)N[C@@H](CC(C)C)C(=O)N[C@@H](CC(C)C)C(=O)N[C@@H](CCCCN)C(N)=O)[C@@H](C)CC)[C@@H](C)CC [DAL-PEG-LK6] (H-Y[dA]GFLR[AEEA]IKKILSKIKKLLK-NH2)
IC50 (HSV-1 [4]): 3.699 mg/L (≈ 1.54 µM) | CC50 at 48 h (in vitro): 33.8 mg/L (≈ 14.1 µM)

CC[C@H](C)[C@H](NC(=O)COCCOCCNC(=O)[C@H](CCCNC(=N)N)NC(=O)[C@H](CC(C)C)NC(=O)[C@H](Cc1ccccc1)NC(=O)CNC(=O)[C@@H](C)NC(=O)[C@@H](N)Cc1ccc(O)cc1)C(=O)N[C@@H](CCCCN)C(=O)N[C@@H](CCCCN)C(=O)N[C@H](C(=O)N[C@@H](CC(C)C)C(=O)N[C@@H](CO)C(=O)N[C@H](CCCCN)C(=O)N[C@H](C(=O)N[C@@H](CCCCN)C(=O)N[C@@H](CCCCN)C(=O)N[C@@H](CC(C)C)C(=O)N[C@@H](CC(C)C)C(N)=O)[C@@H](C)CC)[C@@H](C)CC [DAL-PEG-DK5] (H-Y[dA]GFLR[AEEA]IKKILS[dK]IKKLL-NH2)
morphology of epithelial cells in OTG (H&E) (HSV-1 [5]): no changes in the morphology of epithelial cells
